Source: PubChem BioAssay AID192 (DTP/NCI, 2004)
Where “and” joins values, the source holds several entries; their conditions need not be identical. Identical values can stand only once. Toxic doses and inconclusive results are not listed. Rule for the calls: active = survival T/C of 150% or more; inactive = T/C below 125% in these data.

Tested on: BDF1 mice, B16 melanoma ip, median survival T/C
Test: NCI In Vivo Anticancer Drug Screen. Data for tumor model B16 Melanoma (intraperitoneal) in B6D2F1 (BDF1) mice
Conditions: endpoint: median survival time, higher = longer survival
Procedure, shortened: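 Vehicle-treated animals serve as the reference (C); treated animals (T) are scored for survival or tumor size after tumor transplantation.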

[1] = dose: 50.0 mg/kg/injection, schedule: Q04DX003 (ip), vehicle: other
[2] = dose: 100.0 mg/kg/injection, schedule: Q04DX003 (ip), vehicle: other
[3] = dose: 100.0 mg/kg/injection, schedule: Q01DX009 (ip), vehicle: saline with Tween-80
[4] = dose: 200.0 mg/kg/injection, schedule: Q01DX009 (ip), vehicle: saline with Tween-80
[5] = dose: 400.0 mg/kg/injection, schedule: Q01DX009 (ip), vehicle: saline with Tween-80
[6] = dose: 25.0 mg/kg/injection, schedule: Q01DX009 (ip), vehicle: Klucel (hydroxypropylcellulose) (HPC)
[7] = dose: 50.0 mg/kg/injection, schedule: Q01DX009 (ip), vehicle: Klucel (hydroxypropylcellulose) (HPC)
[8] = dose: 100.0 mg/kg/injection, schedule: Q01DX009 (ip), vehicle: Klucel (hydroxypropylcellulose) (HPC)
[9] = dose: 200.0 mg/kg/injection, schedule: Q01DX009 (ip), vehicle: Klucel (hydroxypropylcellulose) (HPC)
[10] = dose: 400.0 mg/kg/injection, schedule: Q01DX009 (ip), vehicle: Klucel (hydroxypropylcellulose) (HPC)
[11] = dose: 50.0 mg/kg/injection, schedule: Q01DX009 (ip), vehicle: saline
[12] = dose: 100.0 mg/kg/injection, schedule: Q01DX009 (ip), vehicle: saline
[13] = dose: 12.5 mg/kg/injection, schedule: Q01DX009 (ip), vehicle: saline with Tween-80
[14] = dose: 25.0 mg/kg/injection, schedule: Q01DX009 (ip), vehicle: saline with Tween-80
[15] = dose: 50.0 mg/kg/injection, schedule: Q01DX009 (ip), vehicle: saline with Tween-80
[16] = dose: 8.0 mg/kg/injection, schedule: Q01DX009 (ip), vehicle: Klucel (hydroxypropylcellulose) (HPC)
[17] = dose: 6.25 mg/kg/injection, schedule: Q01DX009 (ip), vehicle: saline
[18] = dose: 12.5 mg/kg/injection, schedule: Q01DX009 (ip), vehicle: saline
[19] = dose: 25.0 mg/kg/injection, schedule: Q01DX009 (ip), vehicle: saline
[20] = dose: 200.0 mg/kg/injection, schedule: Q01DX009 (ip), vehicle: saline
[21] = dose: 6.25 mg/kg/injection, schedule: Q01DX009 (ip), vehicle: saline with Tween-80

Measured: T/C

NC(c1ccccc1)C(N)c1ccccc1 (centres undefined)
inactive: dose: 25.0 mg/kg/injection, schedule: Q04DX003 (ip), vehicle: other 97 % of control | [1] 97 % of control | [2] 86 % of control

CC(=O)CCc1ccc(O)cc1
inactive: [3] 90 % of control | [4] 100 % of control | [5] 92 % of control

Cc1cccc(NC(=O)Nc2ccccc2Cl)c1C
inactive: [6] 101 % of control | [7] 101 % of control | [8] 101 % of control

CCC(C)(O)CCc1ccccc1 (centres undefined)
inactive: [8] 113 % of control | [9] 113 % of control | [10] 100 % of control

Cc1ccc([NH-])c([NH-])c1.[Cl][Pt+2][Cl]
inactive: dose: 1.25 mg/kg/injection, schedule: Q01DX009 (ip), vehicle: saline with Tween-80 120 % of control
active: dose: 5.0 mg/kg/injection, schedule: Q01DX009 (ip), vehicle: saline with Tween-80 161 % of control

C/C=C\C#N
inactive: [11] 107 % of control | [12] 107 % of control

CCCCOc1ccc(NC(=O)CCl)cc1
inactive: [13] 99 % of control | [14] 100 % of control | [15] 99 % of control

c1ccc(COCCNCCOCc2ccccc2)cc1
inactive: dose: 12.5 mg/kg/injection, schedule: Q01DX009 (ip), vehicle: Klucel (hydroxypropylcellulose) (HPC) 100 % of control | [6] 90 % of control | [7] 103 % of control

Nc1cc(Cl)cc(Cl)c1C(=O)O
inactive: [1] 102 % of control | [2] 100 % of control | dose: 200.0 mg/kg/injection, schedule: Q04DX003 (ip), vehicle: other 102 % of control

COc1ccc(C(=S)N2CCN(c3ccccc3)CC2)cc1
inactive: [13] 87 % of control | [15] 99 % of control | [4] 87 % of control

C=C1CCN2CCCC12 (centres undefined)
inactive: dose: 10.0 mg/kg/injection, schedule: Q01DX009 (ip), vehicle: saline 107 % of control | dose: 20.0 mg/kg/injection, schedule: Q01DX009 (ip), vehicle: saline 104 % of control | dose: 40.0 mg/kg/injection, schedule: Q01DX009 (ip), vehicle: saline 100 % of control | dose: 80.0 mg/kg/injection, schedule: Q01DX009 (ip), vehicle: saline 95 % of control

CC(=O)NC1c2cc(Cl)ccc2-c2c(Cl)cc(Cl)cc21 (centres undefined)
inactive: [3] 100 % of control | [5] 95 % of control | dose: 800.0 mg/kg/injection, schedule: Q01DX009 (ip), vehicle: saline with Tween-80 86 % of control

NC(Cc1cc([N+](=O)[O-])ccc1CN(CCCl)CCCl)C(=O)O (centres undefined)
active: dose: 1.0 mg/kg/injection, schedule: Q01DX009 (ip), vehicle: Klucel (hydroxypropylcellulose) (HPC) 178 % of control | dose: 1.88 mg/kg/injection, schedule: Q04DX003 (ip), vehicle: Klucel (hydroxypropylcellulose) (HPC) 158 % of control | dose: 2.0 mg/kg/injection, schedule: Q01DX009 (ip), vehicle: Klucel (hydroxypropylcellulose) (HPC) 193 % of control | dose: 3.12 mg/kg/injection, schedule: Q01DX001 (ip), vehicle: Klucel (hydroxypropylcellulose) (HPC) 164 % of control | dose: 3.78 mg/kg/injection, schedule: Q04DX003 (ip), vehicle: Klucel (hydroxypropylcellulose) (HPC) 173 % of control | dose: 4.0 mg/kg/injection, schedule: Q01DX009 (ip), vehicle: Klucel (hydroxypropylcellulose) (HPC) 240 % of control | dose: 6.25 mg/kg/injection, schedule: Q01DX001 (ip), vehicle: Klucel (hydroxypropylcellulose) (HPC) 170 % of control | dose: 7.5 mg/kg/injection, schedule: Q04DX003 (ip), vehicle: Klucel (hydroxypropylcellulose) (HPC) 185 % of control | [16] 261 % of control | dose: 12.5 mg/kg/injection, schedule: Q01DX001 (ip), vehicle: Klucel (hydroxypropylcellulose) (HPC) 186 % of control | dose: 15.0 mg/kg/injection, schedule: Q04DX003 (ip), vehicle: Klucel (hydroxypropylcellulose) (HPC) 164 % of control

O=C(COc1ccc(Cl)cc1)Nc1ccccc1F
inactive: [14] 102 % of control | [15] 92 % of control | [3] 92 % of control

CC1(C)CC(O)(Cc2ccccc2)C(=O)c2ccccc21 (centres undefined)
inactive: [7] 94 % of control | [8] 94 % of control | [9] 99 % of control | [10] 97 % of control

CN(C)CCN1c2ccccc2Sc2ccccc21
inactive: [17] 110 % of control | [18] 97 % of control | [19] 92 % of control | [11] 97 % of control | [12] 92 % of control

C[N+](C)(C)c1ncnc2nc[nH]c12
inactive: [18] 92 % of control | [19] 89 % of control | [11] 93 % of control | [12] 103 % of control | [20] 87 % of control

NC(CC(=O)NC(=O)OCc1ccccc1)C(=O)O (centres undefined)
inactive: [3] 100 % of control | [4] 105 % of control | [5] 110 % of control

O=C(Nc1ccccc1C(=O)O)c1cc([N+](=O)[O-])cc([N+](=O)[O-])c1
inactive: [13] 98 % of control | [14] 101 % of control | [15] 111 % of control | [3] 95 % of control | [4] 87 % of control

C=CCc1ccc(C)c(C)c1O
inactive: dose: 100.0 mg/kg/injection, schedule: Q04DX003 (sc), vehicle: olive oil, sesame oil, peanut oil 91 % of control

O=C(OCCCCCCl)c1ccccc1
inactive: [3] 117 % of control | [4] 104 % of control | [5] 106 % of control

COC(=O)c1ccc[n+](CC(=O)c2ccccc2)c1
inactive: [11] 95 % of control | [12] 93 % of control | [20] 99 % of control

CC(=O)n1cc(F)c(=O)[nH]c1=O
inactive: dose: 5.3 mg/kg/injection, schedule: Q01DX009 (ip), vehicle: Klucel (hydroxypropylcellulose) (HPC) 91 % of control | [16] 91 % of control | dose: 12.0 mg/kg/injection, schedule: Q01DX009 (ip), vehicle: Klucel (hydroxypropylcellulose) (HPC) 104 % of control | dose: 18.0 mg/kg/injection, schedule: Q01DX009 (ip), vehicle: Klucel (hydroxypropylcellulose) (HPC) 120 % of control | dose: 27.0 mg/kg/injection, schedule: Q01DX009 (ip), vehicle: Klucel (hydroxypropylcellulose) (HPC) 114 % of control

O=C(CCl)Nc1cc(C(F)(F)F)ccc1Cl
inactive: [21] 103 % of control | [13] 95 % of control | [14] 93 % of control

CN(C)CC1CCCCN1 (centres undefined)
inactive: [11] 100 % of control | [12] 100 % of control | [20] 100 % of control

Cc1cc2nc(CN)[nH]c2cc1C
inactive: [15] 110 % of control | [3] 97 % of control | [4] 97 % of control

CCCCC(=O)N(c1ccc(Nc2c3ccccc3nc3cc([N+](=O)[O-])ccc23)cc1)S(C)(=O)=O
inactive: dose: 3.8 mg/kg/injection, schedule: Q01DX009 (ip), vehicle: saline with Tween-80 102 % of control | dose: 12.5 mg/kg/injection, schedule: Q01DX001 (ip), vehicle: saline with Tween-80 122 % of control | dose: 15.0 mg/kg/injection, schedule: Q01DX009 (ip), vehicle: saline with Tween-80 120 % of control

C1CNC2NCCNC2N1 (centres undefined)
inactive: [17] 114 % of control | [18] 120 % of control | [19] 105 % of control | [12] 109 % of control

CCCC(O)C(CC)CO (centres undefined)
inactive: [3] 100 % of control | [4] 121 % of control | [5] 115 % of control

O=c1[nH]c2ccc(Br)cc2c(=O)o1
inactive: [14] 91 % of control | [15] 91 % of control | [3] 86 % of control and 88 % of control | [4] 86 % of control

O=c1oc(-c2ccccc2I)nc2ccccc12
inactive: [8] 99 % of control | [9] 94 % of control

O=C(Nc1ccccc1C(F)(F)F)c1ccc(C(=O)Nc2ccccc2C(F)(F)F)cc1
inactive: dose: 8.0 mg/kg/injection, schedule: Q01DX009 (ip), vehicle: saline with Tween-80 88 % of control | dose: 12.0 mg/kg/injection, schedule: Q01DX009 (ip), vehicle: saline with Tween-80 90 % of control | dose: 18.0 mg/kg/injection, schedule: Q01DX009 (ip), vehicle: saline with Tween-80 88 % of control
active: [13] 212 % of control | [14] 171 % of control | [15] 156 % of control

Clc1ccc2nc(CBr)cnc2c1
inactive: dose: 0.75 mg/kg/injection, schedule: Q01DX009 (ip), vehicle: saline with Tween-80 97 % of control | dose: 1.5 mg/kg/injection, schedule: Q01DX009 (ip), vehicle: saline with Tween-80 86 % of control | dose: 3.0 mg/kg/injection, schedule: Q01DX009 (ip), vehicle: saline with Tween-80 97 % of control | dose: 6.0 mg/kg/injection, schedule: Q01DX009 (ip), vehicle: saline with Tween-80 88 % of control | [21] 87 % of control
